Source: US12350250B2, “Aggrelytes for treating ocular conditions” (The Regents of the University of Colorado, a Body Corporate, priority 2022, dated 2025)

Legend:
[1] = system: αB-crystallin (αBC); test: Crystallin levels in solubilized human lens proteins (Western blot), αBC; assay type: biochemical; details: 500 μM, solubilized proteins of three human lenses; not significant
Procedure: The contents of crystalline proteins [αA-crystallin (αAC), αB-crystallin (αBC), β-crystallin (βC), and γ-crystallin (γC)] in the solubilized proteins of three human lenses treated with either Aggrelyte-2 or Aggrelyte-2C (500 μM) from Example 4 were determined by Western blot analysis as described for Example 5. Membranes were incubated with antibodies against αAC (1:14,000 dilution; Enzo Life Sciences, Catalog #ADI-SPA-221D), αBC (1:700,000 dilution; University of Iowa), βC (1:14,000 dilution; Santa Cruz Biotechnology, Catalog #sc-22745), and γC (1:7,000 dilution; Santa Cruz Biotechnology, Catalog #sc-22746). The secondary antibodies were HRP-conjugated anti-mouse IgG for αBC and HRP-conjugated […] (Cell Signaling Technology, Catalog #7074S) for αAC, βC, and γC. According to the supplier, the […] detects mostly βB1-crystallin and, to a lesser extent, βA1/3, βA2, βA4, βB2, and βB3-crystallin. The γC antibody reacts with γA, γB, γC, γD, γE, and γF-crystallin.

[2] = system: mouse lenses; test: AcK in WS fraction of treated mouse lenses (LC-MS/MS); details: 1 mM, 24 hours, vs untreated controls and Aggrelyte-2C (p<0.0001)
Procedure: (§1) Mouse and human lenses were treated with aggrelytes as described in Example 10. Water-soluble proteins from mouse and human lenses were obtained as described in Example 13. Effects of aggrelyte treatment on AcK-bearing proteins in the WS fractions were evaluated by LC-MS/MS analysis as described in Example 6.

[3] = system: human lenses; test: AcK in WS cortical and nuclear fractions of treated human lenses (LC-MS/MS); details: 1 mM, 72 h, vs untreated controls
Procedure: as §1

[4] = system: mouse lenses; test: Acetylated proteins in ex vivo treated mouse lenses (Western blot, Example 19); details: 1 mM, 24 hours
Procedure: The lenses from Example 18 were homogenized using N2-bubbled 50 mM phosphate buffer, pH 7.4 (0.4 mL per lens), in a hand-held motorized homogenizer. The homogenate was centrifuged at 20,000×g for 20 minutes at 4° C. The resulting supernatant was collected, and its protein content was measured using BCA Protein Assay Kit using BSA as the standard. The soluble protein was subjected to 12% SDS-PAGE under denaturing conditions and the proteins were electrophoretically transferred to a nitrocellulose membrane and blocked with 5% nonfat dry milk. The membrane was then incubated with a monoclonal antibody against N-acetyllysine (AcK antibody @ 1:5,000 dilution; Cell Signaling Technology Catalog #9681S) for 16 hours, followed by horseradish peroxidase (HRP)-conjugated goat anti-mouse IgG (1:5,000 dilution; Cell Signaling Technology Catalog #7076S) for 1 hour. Chemiluminescence was detected using the Enhanced Chemiluminescence Detection Kit. The membrane was stained with Ponceau-S to visualize the proteins and normalize acetyllysine (AcK)-bearing protein to total protein load.

## COC(=O)[C@H](CSC(C)=O)NC(C)=O [Aggrelyte-2, N,S-diacetyl-L-cysteine methyl ester]
[1]
  levels of αBC, fold higher than in the Aggrelyte-2C-treated samples: 1.1 fold
  levels of αBC, fold higher than in the Controls: 1.2 fold
[2]
  AcK modifications in WS proteins (LC-MS/MS): significantly higher AcK modifications
[3]
  AcK content, cortical protein fraction (LC-MS/MS): Significantly higher (p<0.05)
  AcK, nuclear fraction (LC-MS/MS): not statistically greater
[4]
  density of acetyl-bearing proteins, fold increase compared to untreated control lenses: 2 fold
